Data on ten molecules can be found in patent publication US9617226B2 (AbbVie Deutschland GmbH & Co. KG, priority 2014, dated 2017).

For assay [1], the target named is human vasopressin V1a receptor (Homo sapiens (Human), UniProt P37288). Kind of assay: Vasopressin V1a receptor binding assay. The note with it: selectivity quotient, human V1a vs human V1b. The protocol:
The test substances were dissolved in a concentration of 5 mM M in DMSO. Further dilution of these DMSO solutions took place as described for V1b.
The membrane pellet was again homogenized in a High-Pressure-Homogenizer, Polytec 50K at 1500 PSI (Heinemann, Germany) and subsequently taken up in 50 mM Tris-HCl, pH 7.4, homogenized and stored in aliquots frozen in liquid nitrogen at −190° C.
The incubation buffer was: 50 mM Tris, 10 mM MgCl2, 0.1% BSA, pH 7.4.
Duplicate determinations were carried out.
After incubation (60 minutes at room temperature), the samples were processed as described for V1b.
The binding parameters were calculated by nonlinear regression in SAS.

The target in assay [2] is human vasopressin V1b receptor (Homo sapiens (Human), UniProt P47901). Kind of assay: biochemical.
Sequence of human vasopressin V1b receptor (P47901 whole entry): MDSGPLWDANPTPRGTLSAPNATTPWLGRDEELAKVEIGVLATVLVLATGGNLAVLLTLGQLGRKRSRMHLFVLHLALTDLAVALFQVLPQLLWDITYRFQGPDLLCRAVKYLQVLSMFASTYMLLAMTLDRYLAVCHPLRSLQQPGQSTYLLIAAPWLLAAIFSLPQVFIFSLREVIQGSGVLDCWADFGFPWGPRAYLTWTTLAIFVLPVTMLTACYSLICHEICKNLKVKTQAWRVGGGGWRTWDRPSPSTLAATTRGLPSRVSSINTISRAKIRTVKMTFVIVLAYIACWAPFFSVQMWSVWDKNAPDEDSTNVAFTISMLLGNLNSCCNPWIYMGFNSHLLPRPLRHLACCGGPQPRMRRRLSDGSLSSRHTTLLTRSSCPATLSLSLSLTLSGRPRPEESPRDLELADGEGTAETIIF

Sequence of human vasopressin V1a receptor (P37288 whole entry): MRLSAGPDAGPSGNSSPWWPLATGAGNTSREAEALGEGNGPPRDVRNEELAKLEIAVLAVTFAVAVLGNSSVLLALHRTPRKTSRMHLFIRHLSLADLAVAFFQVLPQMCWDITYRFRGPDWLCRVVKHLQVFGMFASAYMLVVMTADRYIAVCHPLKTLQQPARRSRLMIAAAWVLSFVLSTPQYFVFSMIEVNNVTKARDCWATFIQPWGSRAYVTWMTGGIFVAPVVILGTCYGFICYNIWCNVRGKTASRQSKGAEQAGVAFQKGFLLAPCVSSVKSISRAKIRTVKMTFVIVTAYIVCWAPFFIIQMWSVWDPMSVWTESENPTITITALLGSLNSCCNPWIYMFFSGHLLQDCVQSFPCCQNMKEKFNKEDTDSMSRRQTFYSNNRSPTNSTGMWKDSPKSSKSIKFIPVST

The term Ki denotes the dissociation constant of the complex between target and ligand, obtained from inhibition or displacement. High values mean weaker binding, low ones tighter binding. As for `CC(C)NC(=O)Cn1c(-c2cccc(Cl)c2)nc2ccc([C@H]3C[C@@H](CN4CCCC(C#N)C4)C3)cc2c1=O` (relative stereo) [Example 14, cis-2-[2-(3-Chlorophenyl)-6-[3-[(3-cyano-1-piperidyl)methyl]cyclobutyl]-4-oxo-quinazolin-3-yl]-N-isopropyl-acetamide], the “Ki(h-V1a)/Ki(h-V1b)” value in assay [1] was “+++ (>75)”. For the same molecule, the Ki in assay [2] lay within 0.001 to 0.01 µM.

With `CC(C)NC(=O)Cn1c(-c2cccc(Cl)c2)nc2ccc([C@H]3C[C@@H](CN4C5CCC4CC(O)C5)C3)cc2c1=O` (relative stereo) [Example 23, cis-2-[2-(3-Chlorophenyl)-6-[3-[(3-hydroxy-8-azabicyclo[3.2.1]octan-8-yl)methyl]cyclobutyl]-4-oxo-quinazolin-3-yl]-N-isopropyl-acetamide], the “Ki(h-V1a)/Ki(h-V1b)” value in assay [1] is “+++ (>75)”. For the same molecule, in assay [2], the Ki was in the range of 0.001 to 0.01 µM.

With `CC(C)NC(=O)Cn1c(-c2cccc(Cl)c2)nc2ccc([C@H]3C[C@@H](CN4CCCC(F)C4)C3)cc2c1=O` (relative stereo) [Example 39, cis-2-[2-(3-Chlorophenyl)-6-[3-[(3-fluoro-1-piperidyl)methyl]cyclobutyl]-4-oxo-quinazolin-3-yl]-N-isopropyl-acetamide], the “Ki(h-V1a)/Ki(h-V1b)” value in assay [1] is recorded as “+++ (>75)”. In addition, in assay [2], the Ki lay within 0.001 to 0.01 µM.

In the case of `CC(C)NC(=O)Cn1c(-c2cccc(Cl)c2)nc2ccc([C@H]3C[C@@H](CN4CC(C)OC(C)C4)C3)cc2c1=O` (relative stereo) [Example 43, cis-2-[2-(3-Chlorophenyl)-6-[3-[(2,6-dimethylmorpholin-4-yl)methyl]cyclobutyl]-4-oxo-quinazolin-3-yl]-N-isopropyl-acetamide], the “Ki(h-V1a)/Ki(h-V1b)” value in assay [1] is listed as “+++ (>75)”. In assay [2], this molecule yielded a Ki of 0.01 to 0.1 µM. Take `CC(C)NC(=O)Cn1c(-c2cccc(Cl)c2)nc2ccc(C3=CC(CN4CCCCC4)C3)cc2c1=O` (stereo not shown) [Example 1, 2-(2-(3-Chlorophenyl)-4-oxo-6-(3-(piperidin-1-ylmethyl)cyclobut-1-en-1-yl)quinazolin-3(4H)-yl)-N-isopropylacetamide]: the “Ki(h-V1a)/Ki(h-V1b)” value in assay [1] is listed as “+++ (>75)”. Further, the Ki in assay [2] was in the range of 0.01 to 0.1 µM. `CC(C)NC(=O)Cn1c(-c2cccc(Cl)c2)nc2ccc([C@H]3C[C@@H](CN4CCCCC4)C3)cc2c1=O` [Example 2a, cis-2-[2-(3-chlorophenyl)-4-oxo-6-[3-(1-piperidylmethyl)cyclobutyl]quinazolin-3-yl]-N-isopropyl-acetamide]: in assay [1], the “Ki(h-V1a)/Ki(h-V1b)” value is listed as “+++ (>75)”. Besides, the Ki in assay [2] lay within 0.001 to 0.01 µM. The corresponding values for `CC(C)NC(=O)Cn1c(-c2cccc(Cl)c2)nc2ccc([C@H]3C[C@H](CN4CCCCC4)C3)cc2c1=O` [Example 2b, trans-2-[2-(3-chlorophenyl)-4-oxo-6-[3-(1-piperidylmethyl)cyclobutyl]quinazolin-3-yl]-N-isopropyl-acetamide] are “+++ (>75)” and 0.01 to 0.1 µM. As to `CC(C)NC(=O)Cn1c(-c2cccc(Cl)c2)nc2ccc(C3CC3CCN3CCCCC3)cc2c1=O` (stereo not shown) [Example 3, 2-[2-(3-Chlorophenyl)-4-oxo-6-[2-[2-(1-piperidyl)ethyl]cyclopropyl]quinazolin-3-yl]-N-isopropyl-acetamide], the “Ki(h-V1a)/Ki(h-V1b)” value in assay [1] is listed as “++ (25-75)”. This molecule also showed a Ki in assay [2] of 0.01 to 0.1 µM. `CC(C)NC(=O)Cn1c(-c2cccc(Cl)c2)nc2ccc(C3CC3CN3CCCCC3)cc2c1=O` (stereo not shown) [Example 4, 2-[2-(3-Chlorophenyl)-4-oxo-6-[2-(1-piperidylmethyl)cyclopropyl]quinazolin-3-yl]-N-isopropyl-acetamide]: the “Ki(h-V1a)/Ki(h-V1b)” value in assay [1] is given as “+++ (>75)”. In assay [2], this molecule showed a Ki of 0.01 to 0.1 µM. The molecule `CC(C)NC(=O)Cn1c(-c2cccc(Cl)c2)nc2ccc([C@H]3C[C@@H](CN4CC(O)C4)C3)cc2c1=O` [Example 40, cis-2-[2-(3-Chlorophenyl)-6-[3-[(3-hydroxyazetidin-1-yl)methyl]cyclobutyl]-4-oxo-quinazolin-3-yl]-N-isopropyl-acetamide] yielded a Ki in assay [2] of 0.001 to 0.01 µM.
